From patent US20250099622A1, “COMPOSITIONS AND METHODS FOR EXPRESSING THERAPEUTICS” (priority 2022, published 2025)

Key:
[1] = tested on: NIH3T3 cells (cGMP secreted); experiment: EC50 for CNP-Fc constructs, cGMP ELISA of NIH3T3 supernatant; format: cell-based; settings: NIH3T3, 30 minutes, 1.8 mM IBMX, cGMP secreted by the cells; FIG. 25B
Protocol: EC50 for CNP-Fc described herein were measured by ELISA. 2.5E+05 NIH3T3 cells/well were plated. […] After 30 minutes, supernatant was collected for cGMP determined via ELISA. FIG. 25A illustrates a standard curve of cGMP.

[2] = tested on: HEK293 cells; experiment: CNP-Fc ELISA of supernatant of AAV-transduced HEK293 cells; format: cell-based, Human
Protocol: C-type natriuretic peptide (CNP) has two isoforms, CNP-22 and CNP-53. Example 2 illustrates that CNP-36 fused with Fe increased the half-life of the CNP and also facilitated in purification and ELISA detection when compared to native (unfused) CNP. Transduction and CNP-Fc expression experiments were performed with three AAV vectors (AMI061, AMI087 and AMI0488). FIG. 1A is the pictorial depiction of the three vectors. FIGS. 1B-F illustrate additional vectors that can encode the CNP or the CNP fusion protein. Enzyme-linked immunoassay (ELISA) was developed for quantifying CNP-Fc fusion proteins in cell culture supernatants. The ELISA assay was used to quantify CNP-Fc expressed in HEK293 cells, human chondrocytes (HCH) cells, and human skeletal muscle cells (hSkMC) upon transduction with one of the three AAV constructs described herein.
Buffer and substrate. Coating buffer: 3.7 g sodium bicarbonate, 0.64 g sodium carbonate in 1 L of Milli Q water, pH 9.6. Stored at RT; Blocking buffer: Commercial Casein blocking buffer in PBS+ added 0.1% Tween20. Stored at 4° C.; Standard diluent: same as blocking buffer; Wash buffer: 1×PBS with 0.1% tween 20 (30 days expiry from date of manufacture); Coating Antibody (Ab): Human CNP Antibody (monoclonal), coating concentration was 2 μg/mL; Detection Ab: Goat pAb anti-human Fc. Diluted up to 1:20,000 final dilution in well. Stored at 4° C.; HRP: Streptavidin-HRP stock of 1 mg/mL, diluted up to 1:10,000. Stored at 4° C.; Substrate: TMB. Stored at 4° C.; and Stop solution: 2 N HCl. Stored at ambient temperature.
• 1. Coat 96-well plate with 2 μg/mL anti-CNP antibody final concentration per well in the coating buffer with a 50 μL volume and cover the plate with sealing cover. Put the plate at 4° C. overnight. • 2. Next day, remove the plate, wash thrice with wash buffer and tap the plate on the paper towel to remove excess solution. • 3. Add 300 μL of blocking buffer to each well using multichannel pipette. […] Add 50 μL stop solution and read plate at 450 nm with 600 as reference within 15 min. […]

AMI088: purified fusion protein Fc1-(G4S)4-CNP36 (IgG1 Fc), SEQ ID NO: 133
EC50 values (rank order) [1]: CNP-22 ≡Fc4-CNP36>Aflibercept-Fc4-CNP36>Fc1-CNP36>>Fc4-CNP22 | Concentration ([2]; CNP-Fc in HEK293 supernatant 5 days after transduction with 100,000 MOI of AAV2 N54 vector): 75 µg/mL | CNP-Fc expression compared to other CNP constructs ([2]; HEK293 supernatant, 100,000 MOI, 5 days): highest expression
